# Data taken from patent publication US7402696B2, “Benzene compounds” (Ajinomoto Co., Inc., priority 2004, dated 2008).
# Where two headings read alike, the source gives them in different places.
# Molecular target: T1, ACC (acetyl CoA carboxylase) purified from liver of male SD rat (Rattus norvegicus, UniProt P11497)
# T1 construct: applied to a monomeric avidin sepharose column, and washed with buffer B. The ACC was eluted with buffer B containing 2 mM d-biotin; from tissue; host or cells: liver of male SD rat
# Assay: Measurement of ACC inhibition activity ([14C]-NaHCO3 incorporation)
# Format: biochemical
# Settings: ACC inhibition activity rate at 1 μM, read-out: ACC Inhibition (%)
# Method in brief: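 Enzyme was avidin-purified from livers of rats fasted and then sucrose-fed. Compounds were preincubated with ACC for 30 min at 37° C in Tris-HCl pH 7.5 with MgCl2, citrate and DTT. [14C]-NaHCO3 solution with 8 mM ATP and 0.5 mM acetyl CoA was added for 10 min at 37° C. Acid-stable 14C gave % inhibition at 1 μM.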
# [1] = Table 3-I, Mode 1 quinoline compounds (numbers = x-I)
# [2] = Table 4-IV, Mode 4 benzenediamine compounds (numbers = x-IV)
inhibition at 1 µM [2],SMILES,other results
–,CCCCS(=O)(=O)NC(=O)C1CCCCCC[C@@H]1NC(=O)c1ccc2nc(-c3cc(C(F)(F)F)cc(C(F)(F)F)c3)ccc2c1 (stereo partly drawn) [compound 55],inhibition at 1 µM [1]: 70%
86%,Cc1ccccc1S(=O)(=O)NC(=O)CC(NC(=O)c1ccc(N(C)CCC(C)C)c(N(C)CCc2ccccc2)c1)C1CCCCC1 (stereo not drawn) [Compound 153-IV],–
85%,CCCCCC(=O)NS(=O)(=O)c1ccccc1NC(=O)c1ccc(NCCC(C)C)c(NC(=O)c2cc(C(F)(F)F)cc(C(F)(F)F)c2)c1 [compound 20],–
62%,CC(C)CCN(C)c1ccc(C(=O)NC(CC(=O)NS(=O)(=O)c2ccccc2)C2CCCCC2)cc1NCc1ccco1 (stereo not drawn) [compound 90],–
–,O=C(O)c1ccc(-c2ccc3nc(-c4cc(C(F)(F)F)cc(C(F)(F)F)c4)ccc3c2)o1 [compound 82],inhibition at 1 µM [1]: 34%
87%,CC(C)CCNc1ccc(-c2noc(-c3cccc(C(=O)NS(=O)(=O)c4ccccc4)c3)n2)cc1[N+](=O)[O-] [compound 36],–
100%,CC(C)CCN(C)c1ccc(-c2noc(-c3cccc(C(=O)NS(=O)(=O)c4ccccc4)c3)n2)cc1NC1C=CCCC1 (stereo not drawn) [compound 59],–
–,CCCCS(=O)(=O)NC(=O)CC(C)(NC(=O)c1ccc2nc(-c3cc(C(F)(F)F)cc(C(F)(F)F)c3)ccc2c1)c1ccccc1 (stereo not drawn) [compound 56],inhibition at 1 µM [1]: 47%
94%,Cc1ccccc1S(=O)(=O)NC(=O)CC(NC(=O)c1ccc(N(C)CCC(C)C)c(N(C)CC2CCCCC2)c1)C1CCCCC1 (stereo not drawn) [compound 119],–
100%,CC(C)CCN(C)c1ccc(-c2noc(-c3cccc(C(=O)NS(=O)(=O)c4ccccc4)c3)n2)cc1NCC1=CCCCC1 [compound 57],–
59%,CC(C)CCN(C)c1ccc(C(=O)NC(CC(=O)NS(=O)(=O)c2ccccc2)C2CCCCC2)cc1NC1CCC1 (stereo not drawn) [compound 85],–
100%,COc1cccc(CNc2cc(-c3noc(-c4cccc(C(=O)NS(=O)(=O)c5ccccc5)c4)n3)ccc2N(C)CCC(C)C)c1 [compound 98],–
–,O=C(O)c1ccccc1-c1csc(-c2ccc(C#Cc3cccc(C(F)(F)F)c3)cc2)n1 [compound 35],"inhibition at 1 µM (Table 2-III, Mode 3 acetylene/oxadiazole/thiazole compounds (numbers = x-III)): 50%"
–,CCCCS(=O)(=O)NC(=O)c1ccccc1NC(=O)c1ccc2nc(-c3cccc(OC(F)(F)F)c3)ccc2c1 [compound 13],inhibition at 1 µM [1]: 48%
100%,Cc1ccccc1S(=O)(=O)NC(=O)c1cccc(-c2nc(-c3ccc(N(C)CCC(C)C)c(NCc4ccccc4)c3)no2)c1 [compound 103],–
